From patent publication US10208021B2, “Substituted tetrahydroisoquinoline compounds as factor XIa inhibitors” (BRISTOL-MYERS SQUIBB COMPANY, priority 2011, dated 2019)

Target: purified human Factor XIa (Homo sapiens (Human), UniProt P03951)
Experiment: Factor XIa chromogenic substrate (S-2366) inhibition assay
Assay type: biochemical
Experimental: The effectiveness of compounds of the present invention as inhibitors of the coagulation factors XIa, VIIa, IXa, Xa, XIIa, plasma kallikrein or thrombin, can be determined using a relevant purified serine protease, respectively, and an appropriate synthetic substrate. The rate of hydrolysis of the chromogenic or fluorogenic substrate by the relevant serine protease was measured both in the absence and presence of compounds of the present invention. […] A decrease in the rate of absorbance or fluorescence change in the presence of inhibitor is indicative of enzyme inhibition. Such methods are known to one skilled in the art. The results of this assay are expressed as the inhibitory constant, Ki. […] JT Baker or Fisher Scientific). […] Values of Ki were determined by allowing the protease to react with the substrate in the presence of the inhibitor. Reactions were allowed to go for periods of 20-180 minutes (depending on the protease) and the velocities (rate of absorbance or fluorescence change versus time) were measured.

[1] = substrate S-2366, activity ranges, Table A

Chain of purified human Factor XIa (P03951 388-625): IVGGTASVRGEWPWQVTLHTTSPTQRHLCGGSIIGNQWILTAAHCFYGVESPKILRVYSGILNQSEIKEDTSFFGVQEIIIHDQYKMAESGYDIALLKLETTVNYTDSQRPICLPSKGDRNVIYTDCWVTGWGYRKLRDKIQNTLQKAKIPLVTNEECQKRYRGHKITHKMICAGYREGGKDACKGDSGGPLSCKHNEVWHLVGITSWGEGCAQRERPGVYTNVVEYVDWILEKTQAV
Chain of purified human Factor XIa (P03951 19-387 partner): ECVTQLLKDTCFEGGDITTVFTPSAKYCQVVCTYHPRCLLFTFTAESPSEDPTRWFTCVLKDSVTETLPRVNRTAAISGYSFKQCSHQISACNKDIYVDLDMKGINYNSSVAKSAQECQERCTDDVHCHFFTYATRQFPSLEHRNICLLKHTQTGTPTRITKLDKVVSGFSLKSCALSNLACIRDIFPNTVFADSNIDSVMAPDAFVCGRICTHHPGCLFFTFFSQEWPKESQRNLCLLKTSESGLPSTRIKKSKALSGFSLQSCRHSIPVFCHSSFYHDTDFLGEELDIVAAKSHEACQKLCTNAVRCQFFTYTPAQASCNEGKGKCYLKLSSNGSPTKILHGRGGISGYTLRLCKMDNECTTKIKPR

Structure (SMILES) | Ki [1] [nM] | Ki (substrate S-2366, Table 1) [nM]
CCOC(=O)c1cc(C)n(-c2cccc3c2CCN(C(=O)/C=C/c2c(-n4cnnn4)ccc(Cl)c2F)C3C(=O)Nc2ccc(F)cc2)n1 (centres unmarked) [Example 242, (E)-Ethyl 1-(2-(3-(3-chloro-2-fluoro-6-(1H-tetrazol-1-yl)phenyl)acryloyl)-1-(4-fluorophenylcarbamoyl)-1,2,3,4-tetrahydroisoquinolin-5-yl)-5-methyl-1H-pyrazole-3-carboxylate] | 100 to 500 | 
COC(=O)Nc1ccc(NC(=O)C2c3cccc(N4CCNCC4)c3CCN2C(=O)/C=C/c2c(-n3cnnn3)ccc(Cl)c2F)cc1 (centres unmarked) [Example 4] |  | 10.3
COCCOC1CCN(c2cccc3c2CCN(C(=O)/C=C/c2c(C(C)=O)ccc(Cl)c2F)C3C(=O)Nc2ccc(C(=O)O)cc2)CC1 (racemic) [Example 269] | < 5 | 
O=C(O)c1ccc(NC(=O)C2c3cccc(N4CCC(N5CCOCC5)CC4)c3CCN2C(=O)/C=C/c2c(-n3cnnn3)ccc(Cl)c2F)cc1 (racemic) [Example 138] | < 5 | 
CN1CCN(c2cccc3c2CCN(C(=O)C=Cc2c(-n4cnnn4)ccc(Cl)c2F)C3C(=O)Nc2ccc(C(=O)O)cc2)CC1 (centres unmarked) [compound 30] | 100 to 500 | 
O=C(O)c1ccc(NC(=O)C2c3cccc(N4CCC5(CCNC5)CC4)c3CCN2C(=O)/C=C/c2c(C(F)(F)F)ccc(Cl)c2F)cc1 (racemic) [Example 227] | < 5 | 
O=C(O)c1ccc(NC(=O)[C@@H]2c3cccc(N4CCC5(CC4)OCCO5)c3CCN2C(=O)/C=C/c2c(-n3cnnn3)ccc(Cl)c2F)cc1 [Example 143] | < 5 | 
CCOC(=O)c1ccc(NC(=O)C2c3cccc(N4CCN(C(=O)OC(C)(C)C)CC4=O)c3CCN2C(=O)/C=C/c2c(-n3cnnn3)ccc(Cl)c2F)cc1 (racemic) [Example 56] | 5 to 10 | 
COC(=O)N1CCN(c2cccc3c2CCN(C(=O)/C=C/c2c(-n4cnnn4)ccc(Cl)c2F)C3C(=O)Nc2ccc(F)cc2)CC1 (centres unmarked) [Example 25] | 5 to 10 | 
O=C(O)c1ccc(NC(=O)[C@@H]2c3cccc(N4CCC(O)CC4)c3CCN2C(=O)/C=C/c2c(-n3cnnn3)ccc(Cl)c2F)cc1 [Example 149] | < 5 | 
COCCOC(=O)c1ccc(NC(=O)C2c3cccc(N4CCC(N5CCCC5)CC4)c3CCN2C(=O)C=Cc2c(C(C)=O)ccc(Cl)c2F)cc1 (centres unmarked) [Example 174] | < 5 | 
CCCCOC(=O)c1ccc(NC(=O)C2c3cccc(N4CCC(N5CCCC5)CC4)c3CCN2C(=O)C=Cc2c(-n3cnnn3)ccc(Cl)c2F)cc1 (centres unmarked) [Example 114] | < 5 | 
O=C(O)c1ccc(NC(=O)C2c3cccc(N4CCC(F)CC4)c3CCN2C(=O)C=Cc2c(-n3cnnn3)ccc(Cl)c2F)cc1 (centres unmarked) [Example 270] | < 5 | 
CC(=O)c1ccc(Cl)c(F)c1C=CC(=O)N1CCc2c(cccc2N2CCC3(CCN(C)C3=O)CC2)C1C(=O)Nc1ccc(C(=O)O)cc1 (centres unmarked) [Example 221] | 5 to 10 | 
CCOC(=O)c1ccc(NC(=O)C2c3cccc(N4CCOCC4)c3CCN2C(=O)C=Cc2c(-n3cnnn3)ccc(Cl)c2F)cc1 (centres unmarked) [Example 186] | 500 to 5000 | 
COC(=O)c1ccc(NC(=O)C2c3cccc(N4CCC(N5CCCC5)CC4)c3CCN2C(=O)/C=C/c2c(C(C)=O)ccc(Cl)c2F)cc1 (racemic) [Example 175] |  | < 5
CC(C)(C)OC(=O)CCNC(=O)C1c2cccc(N3CCC(N4CCCC4)CC3)c2CCN1C(=O)/C=C/c1c(-n2cnnn2)ccc(Cl)c1F (racemic) [Example 230] | 100 to 500 | 
CN(C)C(=O)c1ccc(NC(=O)C2c3cccc(N4CCNCC4)c3CCN2C(=O)/C=C/c2cc(Cl)c(F)cc2-n2cnnn2)cc1 (racemic) [Example 76] | 500 to 5000 | 
N[C@H]1CC[C@H](NC(=O)C2c3cccc(N4CCC(N5CCCC5)CC4)c3CCN2C(=O)/C=C/c2c(-n3cnnn3)ccc(Cl)c2F)CC1 (mixture of isomers) [Example 235] |  | 74.5
CC(=O)c1ccc(Cl)c(F)c1C=CC(=O)N1CCc2c(cccc2N2CCC(N3CCCC3)CC2)C1C(=O)Nc1ccc(C(=O)OCc2ccccc2)cc1 (centres unmarked) [Example 171] | 5 to 10 | 
